# Laboratory results taken from patent US12139556B2, “Insect neuropeptides 6” (Solasta Bio Limited, priority 2022, dated 2024).
# How the values were obtained:
# Type in all cases: in vivo
# [1] = test system: Myzus persicae; assay: Leaf dip assay (IRAC susceptibility test method 019), mortality assessment; settings: unformulated or with Silwet-408 adjuvant; mortality assessed at 72, 96 and 120 hours; FIGS. 6-8
# Method: The assay was carried out based on IRAC susceptibility test method 019 (irac-online.org/methods/aphids-adultnymphs/).
# Fill a small 4 cm wide 3 cm high dish with a 1% agar treatment solution of the active chemical or control (ensuring 1 cm gap between the agar and the lid) and leave to set. Dip a 2.5 cm leaf disc into 3 ml of treatment solution allowing the treatment to coat the leaf. Leave the disc to dry for 1 hour and place onto the set agar. Place insects (M. persicae aphids) onto each of the leaf discs. Each unit is sealed with a close-fitting, ventilated lid. Place the agar dishes in a small plastic tray lined with moist tissue paper and ensure the water trays in the bottom of the incubator are filled with clean water and place within the incubator. An assessment of mortality is made at 72, 96 and 120 hours. Leaf dip assays were performed with SB-P-65, and compared to a negative control vehicle and a current commercial insecticide Spirotetramat. The activity of SB-P-65 is shown in FIGS. 6-8; SB-P-65 has good activity whilst being eco-friendly and targeted to specific pests unlike broad spectrum chemical insecticides such as Spirotetramat.
# [2] = test system: bees; assay: Bee oral toxicity test adapted from OECD Test No. 247 (Bumblebee, Acute Oral Toxicity Test); settings: % survival after 96 hours of application; FIG. 10
# Method: Bee oral testing protocol was carried out adapted from OECD Test No. 247: Bumblebee, Acute Oral Toxicity Test. The toxicity of SB-P-65 was compared with a negative control of sucrose or vehicle, and with a current commercial insecticide Imidacloprid.
# [3] = test system: Aphis fabae; assay: Field trials (PGRO) on vining peas, naturally infested
# Method: (§1) Field trials for peptide SB-P-65, unformulated, against various insects were conducted by third-party organisations PGRO and AgriScience.
# [4] = test system: Aphis gossypii; assay: Field trials (AgriScience) on cotton and melon, naturally infested
# Method: as §1
# [5] = test system: Myzus persicae; assay: Field trials by third-party organisations
# Method: as §1
# [6] = versus Stealth/Aphox, Teppeki/Aphox, Profil Extra, Hallmark Zeon
structure (smiles),measurement,setting,value
"CC(C)[C@H](NC(=O)[C@@H](NC(=O)[C@H](CCCCN)NC(=O)[C@H](CCC(N)=O)NC(=O)[C@@H](N)CCCNC(=N)N)[C@@H](C)O)C(=O)N[C@@H](Cc1ccccc1)C(=O)N[C@@H](CO)C(=O)N[C@@H](CO)C(=O)N[C@@H](Cc1c[nH]c2ccccc12)C(=O)NCC(N)=O [SB-P-65, [Hy]-RQKTVFSSWG-[NH2]]",activity against Myzus persicae (mortality) in leaf dip assay,[1],good activity
same,"toxicity to bees (oral), compared to Imidacloprid",[2],far lower toxicity
same,efficacy in field trials against Aphis fabae,"[3]; unformulated, vining peas, real-world conditions, FIGS. 11, 14",good efficacy
same,"efficacy relative to commercial insecticides, Aphis fabae field trials",[3]; [6],comparably to commercial insecticides
same,efficacy in field trials against Aphis gossypii,"[4]; unformulated, cotton, melon, real-world conditions, FIGS. 12, 13",good efficacy
same,"efficacy relative to commercial insecticides, Aphis gossypii field trials",[4]; [6],comparably to commercial insecticides
same,efficacy in field trials against Myzus persicae,"[5]; unformulated, real-world conditions",good efficacy
same,"efficacy relative to commercial insecticides, Myzus persicae field trials",[5]; [6],comparably to commercial insecticides
